# Laboratory results reported in ChEMBL document CHEMBL1201862, “PubChem BioAssay data set” (2004).
# Active and inactive are the calls of the source.
# Tests used:
# Cytochrome P450 2D6 = Cytochrome P450 2D6 (Homo sapiens, UniProt P10635);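 further: CYP2D6 member of a cytochrome P450 panel assay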
# Cytochrome P450 2C9 = Cytochrome P450 2C9 (Homo sapiens, UniProt P11712)
# [1] = Luminescence Cell-Based Dose Retest to Confirm Inhibitors of Cancer Stem Cells. [Related pubchem assays (depositor defined):AID2717, AID2721]; type: functional; conditions: Homo sapiens
# Cytochrome P450 3A4 = Cytochrome P450 3A4 (Homo sapiens, UniProt P08684);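 further: CYP3A4 tested as one member of a cytochrome P450 panel screen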
# Streptococcus = assay: GAS UMAA2166 growth inhibition – luminescence, BacTiterGlo, counter-screen for streptokinase expression inhibitor project, dose response (AID 1915); type: functional, organism-based;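 further: potency for reduction of bacterial viability or growth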
# [2] = tested on: Streptococcus sp. 'group A'; assay: Streptococcus pyogenes SK(-)GAS viability under kanamycin – luminescence, BacTiterGlo, confirmation, counter-screen for streptokinase expression inhibitor project, dose response (AID 1900); type: functional, organism-based
# [3] = biological target: FAD-linked sulfhydryl oxidase ALR (Homo sapiens, UniProt P55789); assay: ALR-catalysed DTT oxidation blockers – biochemical, H2O2 detection, luminescence, cherry-pick, dose response (AID 493248)
# Cytochrome P450 2C19 = Cytochrome P450 2C19 (Homo sapiens, UniProt P33261); assay: Cytochrome panel assay with activity outcomes. Panel member name: p450-cyp2c19 Compounds with AC50 equal or less than 10 uM are considered active; type: functional; conditions: read-out: AC50
# Cytochrome P450 1A2 = biological target: T1, Cytochrome P450 1A2 (Homo sapiens, UniProt P05177);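 further: PubChem cytochrome P450 panel assay, CYP1A2 panel member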
# T1 sequence (P05177 whole entry): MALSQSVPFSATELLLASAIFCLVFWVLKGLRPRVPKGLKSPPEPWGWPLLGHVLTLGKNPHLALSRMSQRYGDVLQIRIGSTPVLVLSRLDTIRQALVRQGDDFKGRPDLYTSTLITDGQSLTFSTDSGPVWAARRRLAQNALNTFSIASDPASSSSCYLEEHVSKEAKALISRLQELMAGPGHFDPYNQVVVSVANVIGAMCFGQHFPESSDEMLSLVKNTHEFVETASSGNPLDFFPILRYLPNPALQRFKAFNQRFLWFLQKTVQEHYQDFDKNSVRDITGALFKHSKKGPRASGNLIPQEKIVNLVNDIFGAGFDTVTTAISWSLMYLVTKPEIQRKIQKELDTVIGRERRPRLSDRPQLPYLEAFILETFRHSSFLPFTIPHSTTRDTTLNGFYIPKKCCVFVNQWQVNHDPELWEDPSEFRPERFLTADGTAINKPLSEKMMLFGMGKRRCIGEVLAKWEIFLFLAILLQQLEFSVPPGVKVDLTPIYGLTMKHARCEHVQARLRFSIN
# [4] = Trypanosoma cruzi growth suppression in host cells – NIH3T3 host cells, beta-gal luminescence, confirmation (AID 2044); type: functional, cell-based;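 further: intracellular parasites grown in NIH/3T3 mouse fibroblasts as host cells; luminescent beta-galactosidase reporter signal from transgenic T. cruzi replicating inside host cells; inhibitors lower the luminescence signal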
# [5] = NIH3T3 cell viability loss – ATP luminescence, mouse fibroblasts, counter-screen, dose response (AID 2010); type: functional, cell-based;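 further: cells exposed to compound for about 90 hours before reading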
# [6] = biological target: T2, Rac GTPase-activating protein 1 (Homo sapiens, UniProt Q9H0H5); assay: blockers of MgcRacGAP-driven Rac1 GTP hydrolysis – biochemical, ADP Hunter fluorescence, primary and confirmatory, confirmation (AID 624330); type: functional
# T2 sequence (Q9H0H5 whole entry): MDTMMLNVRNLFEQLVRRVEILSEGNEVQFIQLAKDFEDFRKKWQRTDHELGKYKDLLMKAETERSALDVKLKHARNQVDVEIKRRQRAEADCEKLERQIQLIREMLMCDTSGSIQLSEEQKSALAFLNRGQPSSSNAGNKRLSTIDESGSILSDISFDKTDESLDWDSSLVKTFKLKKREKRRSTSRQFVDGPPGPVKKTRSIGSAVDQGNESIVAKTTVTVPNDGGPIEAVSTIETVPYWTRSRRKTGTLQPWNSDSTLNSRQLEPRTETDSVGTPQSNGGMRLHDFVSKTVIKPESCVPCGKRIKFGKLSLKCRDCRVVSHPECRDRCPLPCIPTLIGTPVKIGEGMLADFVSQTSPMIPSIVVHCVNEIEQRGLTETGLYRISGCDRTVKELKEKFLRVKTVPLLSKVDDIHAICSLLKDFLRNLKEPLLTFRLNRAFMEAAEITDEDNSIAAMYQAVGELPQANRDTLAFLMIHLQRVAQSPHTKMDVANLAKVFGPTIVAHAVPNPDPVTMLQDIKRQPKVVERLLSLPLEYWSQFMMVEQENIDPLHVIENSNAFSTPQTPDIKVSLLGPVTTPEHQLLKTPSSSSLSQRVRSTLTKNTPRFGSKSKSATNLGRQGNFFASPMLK
# [7] = biological target: T3, Zinc finger protein mex-5 (Caenorhabditis elegans, UniProt Q9XUB2); assay: potency of MEX-5 RNA-binding blockers – biochemical, C. elegans, fluorescence polarization, dose response (AID 1960)
# T3 sequence (Q9XUB2 whole entry): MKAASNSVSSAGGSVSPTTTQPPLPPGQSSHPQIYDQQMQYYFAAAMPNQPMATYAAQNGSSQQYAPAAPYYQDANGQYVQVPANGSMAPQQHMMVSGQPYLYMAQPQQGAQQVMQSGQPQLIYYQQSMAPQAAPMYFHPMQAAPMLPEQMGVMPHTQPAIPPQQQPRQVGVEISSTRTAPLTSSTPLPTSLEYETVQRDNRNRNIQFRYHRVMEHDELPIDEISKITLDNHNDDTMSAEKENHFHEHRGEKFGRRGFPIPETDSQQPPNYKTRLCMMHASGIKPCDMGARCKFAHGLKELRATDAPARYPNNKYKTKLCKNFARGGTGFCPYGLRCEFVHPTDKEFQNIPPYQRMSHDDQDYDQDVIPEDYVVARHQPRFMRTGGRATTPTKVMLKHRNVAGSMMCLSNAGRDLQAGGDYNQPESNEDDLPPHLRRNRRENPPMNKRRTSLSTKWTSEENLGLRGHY
# [8] = biological target: T4, RNA-binding protein pos-1 (Caenorhabditis elegans, UniProt G5EF15); assay: disruptors of C. elegans POS-1 RNA interaction – biochemical, fluorescence polarization, dose response (AID 1964);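 further: purified POS-1 fused to maltose binding protein made in E. coli; potency of compounds blocking POS-1 binding to fluorescent RNA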
# T4 sequence (G5EF15 whole entry): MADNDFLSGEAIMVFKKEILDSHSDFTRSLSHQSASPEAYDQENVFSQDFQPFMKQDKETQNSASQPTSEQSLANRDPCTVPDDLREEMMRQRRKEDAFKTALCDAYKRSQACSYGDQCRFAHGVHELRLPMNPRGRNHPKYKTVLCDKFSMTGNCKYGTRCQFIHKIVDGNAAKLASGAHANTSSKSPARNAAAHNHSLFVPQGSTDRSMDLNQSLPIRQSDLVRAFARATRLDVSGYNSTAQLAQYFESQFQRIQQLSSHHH
# Chain of Cytochrome P450 2C19 (P33261 whole entry): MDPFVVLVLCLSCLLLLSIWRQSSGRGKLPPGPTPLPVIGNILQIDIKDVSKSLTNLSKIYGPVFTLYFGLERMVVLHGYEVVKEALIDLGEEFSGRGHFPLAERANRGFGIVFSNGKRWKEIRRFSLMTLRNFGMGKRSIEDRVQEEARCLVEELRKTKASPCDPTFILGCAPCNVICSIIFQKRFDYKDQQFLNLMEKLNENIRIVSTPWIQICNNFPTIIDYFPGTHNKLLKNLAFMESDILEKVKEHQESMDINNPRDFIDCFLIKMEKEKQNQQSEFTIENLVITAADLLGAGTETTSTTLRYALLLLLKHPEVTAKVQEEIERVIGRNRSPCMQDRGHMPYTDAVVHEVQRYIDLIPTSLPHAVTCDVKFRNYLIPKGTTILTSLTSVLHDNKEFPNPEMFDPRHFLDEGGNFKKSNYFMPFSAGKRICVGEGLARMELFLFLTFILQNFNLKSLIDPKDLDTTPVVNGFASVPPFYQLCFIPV
# Chain of Cytochrome P450 2D6 (P10635 whole entry): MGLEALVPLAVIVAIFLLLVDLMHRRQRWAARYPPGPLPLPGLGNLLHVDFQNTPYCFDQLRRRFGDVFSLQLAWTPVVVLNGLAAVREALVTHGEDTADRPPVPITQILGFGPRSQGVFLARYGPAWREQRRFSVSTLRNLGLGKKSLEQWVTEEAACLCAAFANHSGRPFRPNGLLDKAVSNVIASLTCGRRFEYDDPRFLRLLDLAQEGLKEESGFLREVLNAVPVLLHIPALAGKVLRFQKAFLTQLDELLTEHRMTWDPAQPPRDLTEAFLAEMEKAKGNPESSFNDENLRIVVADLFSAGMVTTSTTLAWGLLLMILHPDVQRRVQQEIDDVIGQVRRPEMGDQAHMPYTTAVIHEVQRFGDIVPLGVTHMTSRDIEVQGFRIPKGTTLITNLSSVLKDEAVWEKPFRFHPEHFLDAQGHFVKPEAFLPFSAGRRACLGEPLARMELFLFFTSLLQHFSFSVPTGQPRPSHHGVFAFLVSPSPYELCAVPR
# Chain of Cytochrome P450 2C9 (P11712 whole entry): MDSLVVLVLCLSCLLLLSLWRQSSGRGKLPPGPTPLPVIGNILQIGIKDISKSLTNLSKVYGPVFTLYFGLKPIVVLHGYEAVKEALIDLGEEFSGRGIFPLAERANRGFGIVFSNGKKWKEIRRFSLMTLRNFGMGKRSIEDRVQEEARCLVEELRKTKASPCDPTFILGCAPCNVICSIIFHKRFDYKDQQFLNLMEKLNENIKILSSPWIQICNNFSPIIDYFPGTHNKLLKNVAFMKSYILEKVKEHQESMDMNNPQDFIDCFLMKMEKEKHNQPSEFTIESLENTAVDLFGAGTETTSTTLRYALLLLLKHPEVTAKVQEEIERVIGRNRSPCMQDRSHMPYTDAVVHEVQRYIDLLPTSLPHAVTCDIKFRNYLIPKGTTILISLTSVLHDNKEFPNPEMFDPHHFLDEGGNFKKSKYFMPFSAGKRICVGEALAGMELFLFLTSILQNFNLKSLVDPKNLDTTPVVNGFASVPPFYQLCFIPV
# Chain of Cytochrome P450 3A4 (P08684 whole entry): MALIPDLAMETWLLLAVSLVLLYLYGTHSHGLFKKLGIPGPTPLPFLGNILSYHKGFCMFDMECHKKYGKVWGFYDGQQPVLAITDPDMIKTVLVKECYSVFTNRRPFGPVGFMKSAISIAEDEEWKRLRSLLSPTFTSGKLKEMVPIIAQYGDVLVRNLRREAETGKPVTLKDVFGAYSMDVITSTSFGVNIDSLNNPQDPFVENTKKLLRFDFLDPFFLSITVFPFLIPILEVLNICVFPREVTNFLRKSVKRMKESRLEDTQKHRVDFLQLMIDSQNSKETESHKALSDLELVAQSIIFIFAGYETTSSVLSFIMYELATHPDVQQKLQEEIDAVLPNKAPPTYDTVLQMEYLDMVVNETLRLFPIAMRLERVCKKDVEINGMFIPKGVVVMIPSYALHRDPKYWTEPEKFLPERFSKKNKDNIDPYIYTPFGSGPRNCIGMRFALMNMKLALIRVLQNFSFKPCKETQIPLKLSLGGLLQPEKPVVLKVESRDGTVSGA
# Chain of FAD-linked sulfhydryl oxidase ALR (P55789 whole entry): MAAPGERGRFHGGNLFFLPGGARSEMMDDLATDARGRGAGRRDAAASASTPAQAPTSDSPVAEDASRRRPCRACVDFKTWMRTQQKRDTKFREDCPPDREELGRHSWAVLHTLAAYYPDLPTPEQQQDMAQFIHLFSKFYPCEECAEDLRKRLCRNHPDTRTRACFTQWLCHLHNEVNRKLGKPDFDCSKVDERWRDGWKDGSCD
smiles,measurement,setting,value
COc1ccc(CCNC(=O)CCN2C(=O)COc3ccc(C)cc32)cc1OC,AC50,Cytochrome P450 2D6,39.8 µM (inconclusive)
same,AC50,Cytochrome P450 2C9,28.2 µM (inconclusive)
O=C(NCCc1ccccc1)c1cc(-c2ccccc2)c(N2CCOCC2)s1,AC50,[1],3.48 µM (active)
Cc1ccc(CSc2nnc(-c3ccncc3)n2CC2CCCO2)cc1 (configuration not stated),AC50,Cytochrome P450 3A4,1.41 µM (inconclusive)
CC/C(=C\C1CCCCC1)C(NP(=O)(c1ccccc1)c1ccccc1)c1ccccc1 (configuration not stated),AC50,[1],2.58 µM (active)
same,EC50,Streptococcus,2.26 µM (active)
same,EC50,[2],1.68 µM (active)
CCN1/C(=C2/SC(=S)NC2=O)Sc2ccccc21,AC50,[3],2.18 µM (active)
CC(=O)N1CCC2(CCCN(Cc3nccs3)C2)CC1,AC50,Cytochrome P450 2D6,15.8 µM (inconclusive)
same,AC50,Cytochrome P450 3A4,39.8 µM (inconclusive)
CN1CCN(c2ncnc3ccc(-c4cccc(C#N)c4)cc23)CC1,AC50,Cytochrome P450 3A4,25.1 µM (inconclusive)
CCOc1ccc(OCc2cccc(C(=O)Nc3ccc(CN4CCCCC4)cc3)c2)cc1,AC50,[1],5.46 µM (active)
O=C(O)c1cc2ccccc2cc1Nc1ccccc1,AC50,[3],1.49 µM (active)
COc1ccc(C(C(=O)NC2CCCCC2)N(C(=O)CCCC(=O)Nc2ccccn2)c2ccc3c(c2)OCCO3)cc1 (configuration not stated),AC50,Cytochrome P450 2C19,7.94 µM (inconclusive)
same,AC50,Cytochrome P450 2C9,14.1 µM (inconclusive)
COc1cc2c(c(OC)c1OC)-c1ccc(O)c(=O)cc1[C@H](N)CC2,AC50,Cytochrome P450 3A4,3.16 µM (inconclusive)
O=C1N/C(=C\c2ccc(N3CCOCC3)c(F)c2)C(=O)N1Cc1ccccc1,AC50,Cytochrome P450 3A4,0.794 µM (inconclusive)
same,AC50,Cytochrome P450 1A2,2 µM (inconclusive)
COc1ccc(CNc2ncnc3ccc(-c4cccc(C#N)c4)cc23)c(OC)c1,AC50,Cytochrome P450 2C9,0.0158 µM (inconclusive)
CN(C)C(=O)c1ccc(-c2cncnc2Nc2ccccc2)cc1,AC50,Cytochrome P450 3A4,5.01 µM (inconclusive)
same,AC50,Cytochrome P450 1A2,31.6 µM (inconclusive)
Brc1ccccc1OCCOCCOc1cccc2cccnc12,AC50,Cytochrome P450 2C19,3.16 µM (inconclusive)
same,AC50,Cytochrome P450 2C9,11.2 µM (inconclusive)
same,AC50,Cytochrome P450 3A4,39.8 µM (inconclusive)
Cc1ccc(NC(=O)c2cc([N+](=O)[O-])ccc2NCc2cccnc2)cc1Cl,AC50,Cytochrome P450 2D6,0.794 µM (inconclusive)
same,AC50,Cytochrome P450 2C9,0.251 µM (inconclusive)
same,EC50,[4],1.82 µM (active)
same,EC50,[5],> 60 µM (not active)
COc1ccc(CNc2ccnc(-c3c(C)noc3C)n2)c(OC)c1,AC50,Cytochrome P450 2D6,39.8 µM (inconclusive)
same,AC50,Cytochrome P450 2C9,1 µM (inconclusive)
CN1CC(=O)N(CC(=O)Nc2ccc(SC(F)F)cc2)C1=O,AC50,[3],0.477 µM (active)
NC(=O)C1CCN(C(=O)N2c3ccccc3Sc3ccccc32)CC1,AC50,[3],10.8 µM (active)
C/C(=N\Nc1nc2ccccc2[nH]1)c1cccs1,AC50,[3],0.02 µM (active)
same,IC50,[6],26.8 µM (active)
CCc1ccc2c(c1)[C@H]1OCC[C@H]1[C@@H](c1cccs1)N2,AC50,[1],2.97 µM (active)
COC(=O)c1sccc1-c1ccc(C(=O)Nc2cccc(Cl)c2)o1,AC50,Cytochrome P450 3A4,28.2 µM (inconclusive)
Cn1c(S)nnc1CSCc1ccc(Cl)cc1,AC50,[3],8.71 µM (active)
CN(C)c1ccc(C(C(=O)NC2CCCC2)N(C(=O)c2ccco2)C2CC2)cc1 (configuration not stated),AC50,[3],2.33 µM (active)
COc1ccc(CSC2=C(C#N)C(=O)NC3(CCCCC3)S2)cc1,AC50,Cytochrome P450 2C9,3.16 µM (inconclusive)
COc1ccc(-c2[nH]c(-c3ccc(C(=O)O)cc3)nc2-c2ccccc2)cc1,AC50,Cytochrome P450 2C19,39.8 µM (inconclusive)
same,AC50,[3],3.94 µM (active)
same,AC50,Cytochrome P450 1A2,28.2 µM (inconclusive)
O=C(O)c1ccc(-n2c(/C=C/c3ccccc3)nc3ccccc3c2=O)cc1,AC50,[3],5.95 µM (active)
CCCSc1nc(SCC(=O)NCc2ccccc2)c2c3c(sc2n1)COC(C)(CC)C3 (configuration not stated),AC50,Cytochrome P450 3A4,7.08 µM (inconclusive)
COc1cccc(-c2cc(C(F)(F)F)nc(N3CCN(c4ccccc4)CC3)n2)c1,AC50,Cytochrome P450 2C9,0.631 µM (inconclusive)
Cc1ccc(N2CC(C(=O)Nc3cc(C)on3)CC2=O)cc1 (configuration not stated),AC50,Cytochrome P450 2C9,11.2 µM (inconclusive)
same,AC50,Cytochrome P450 3A4,22.4 µM (inconclusive)
COc1ccccc1CCC(=O)OCc1csc(CC(=O)Nc2ccccc2C)n1,EC50,[7],> 300 µM (inconclusive)
same,EC50,[8],> 300 µM (not active)
O=C(O)CC/C(=N\Nc1ccccc1[N+](=O)[O-])c1cccs1,AC50,[3],2.73 µM (active)
COc1ccc(C(=O)/C=C(/C)N(C)C)cc1,AC50,Cytochrome P450 2C19,11.2 µM (inconclusive)
same,AC50,Cytochrome P450 3A4,5.01 µM (inconclusive)
CN1CCCC(CN2c3ccccc3Sc3ccccc32)C1 (configuration not stated) [MEPAZINE ACETATE],AC50,[3],0.098 µM (active)
CCN(CCNC(=O)C1CCCN(S(=O)(=O)c2c[nH]cn2)C1)c1ccccc1 (configuration not stated),AC50,[3],0.394 µM (active)
CCc1cc2ccc(C)cc2nc1SCC(=O)c1ccc(NC(C)=O)cc1,AC50,[1],3.68 µM (active)
CC(C)C[C@H](NC(=O)N1CCCCCC1)C(=O)N[C@H](Cc1cn(C)c2ccccc12)C(=O)N[C@H](Cc1ccccn1)C(=O)O,AC50,Cytochrome P450 3A4,15.8 µM (inconclusive)
same,AC50,Cytochrome P450 1A2,39.8 µM (inconclusive)
C[C@H](C(=O)c1ccncc1)c1ccccn1,AC50,Cytochrome P450 3A4,3.98 µM (inconclusive)
Cc1ccc(C)c(N(C)C(=O)c2coc(=O)c3ccccc23)c1,EC50,[7],> 300 µM (not active)
same,EC50,[8],> 300 µM (not active)
Cn1c(N)c(C(=O)CSc2ccc3c(c2)OCCO3)c(=O)n(C)c1=O,AC50,Cytochrome P450 2C9,39.8 µM (inconclusive)
C=CCc1cccc(CNc2nc3ccccc3n2CCC)c1O,AC50,[1],7.58 µM (active)
